# Like-named read-outs stand apart in the source and are kept apart here.
# Biological target: T1, HSL (Homo sapiens, UniProt Q05469)
# T1 sequence (Q05469 1-1076): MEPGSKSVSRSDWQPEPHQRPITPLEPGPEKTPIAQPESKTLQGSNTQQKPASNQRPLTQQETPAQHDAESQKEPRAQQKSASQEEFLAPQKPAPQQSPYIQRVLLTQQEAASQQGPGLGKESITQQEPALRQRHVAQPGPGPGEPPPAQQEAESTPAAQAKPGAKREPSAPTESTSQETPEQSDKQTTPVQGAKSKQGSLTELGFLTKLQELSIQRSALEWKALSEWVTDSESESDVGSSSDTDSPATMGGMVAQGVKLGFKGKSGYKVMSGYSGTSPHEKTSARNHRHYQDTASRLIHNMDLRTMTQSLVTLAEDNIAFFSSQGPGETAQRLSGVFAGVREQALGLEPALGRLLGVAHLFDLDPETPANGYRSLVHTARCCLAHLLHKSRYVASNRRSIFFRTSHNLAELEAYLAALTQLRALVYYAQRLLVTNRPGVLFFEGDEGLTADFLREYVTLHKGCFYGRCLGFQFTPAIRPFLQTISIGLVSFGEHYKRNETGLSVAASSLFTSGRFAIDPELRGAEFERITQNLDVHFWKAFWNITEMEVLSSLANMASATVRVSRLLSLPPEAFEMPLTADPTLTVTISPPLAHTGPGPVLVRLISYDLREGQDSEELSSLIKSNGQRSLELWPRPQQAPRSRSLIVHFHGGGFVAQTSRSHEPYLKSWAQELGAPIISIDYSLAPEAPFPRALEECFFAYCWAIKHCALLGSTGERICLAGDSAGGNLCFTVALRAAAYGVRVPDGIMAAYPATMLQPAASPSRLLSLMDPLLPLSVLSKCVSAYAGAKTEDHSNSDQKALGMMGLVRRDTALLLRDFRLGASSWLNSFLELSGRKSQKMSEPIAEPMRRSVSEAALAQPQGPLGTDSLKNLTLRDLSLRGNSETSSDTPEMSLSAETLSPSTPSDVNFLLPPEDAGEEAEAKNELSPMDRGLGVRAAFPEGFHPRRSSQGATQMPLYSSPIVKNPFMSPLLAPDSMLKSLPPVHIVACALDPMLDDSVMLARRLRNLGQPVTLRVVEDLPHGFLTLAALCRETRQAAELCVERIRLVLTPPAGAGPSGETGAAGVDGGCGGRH
# Test: TEST 3180.2 HSL: percent inhibition at 10 μM, 3H-Triolein lipid emulsion
# Type: biochemical
# Settings: for activity at 10 µM: read-out: TEST 3180.2 HSL Activity (%)
# [1] = 10 μM concentration, percent activity relative to an un-inhibited sample, 30 min preincubation, 30 min reaction at 25° C.
activity at 10 µM [1] [%],Molecule,other results
–,3-Fluoro-4-phenylboronic acid [Example 72],TEST 3180.2 HSL Activity (%) (10 µM): 97%
85,"OB(O)c1ccc(OCc2ccccc2)cc1 [Example 33, 4-Benzyloxyphenylboronic acid]",–
38,"CC1(C)COB(c2cc(F)cc(F)c2)OC1 [Example 35, 2-(3,5-DIFLUOROPHENYL)-5,5-DIMETHYL-1,3,2-DIOXABORINANE]",–
83,"CC1(C)COB(c2ccc(Br)cc2)OC1 [Example 37, 2-(4-BROMOPHENYL)-5,5-DIMETHYL-1,3,2-DIOXABORINANE]",–
89,"CC1(C)COB(c2ccccc2Cl)OC1 [Example 38, 2-(2-chloroPHENYL)-5,5-DIMETHYL-1,3,2-DIOXABORINANE]",–
97,"CC1(C)COB(c2ccccc2C#N)OC1 [Example 39, 2-(5,5-Dimethyl-[1,3,2]dioxaborinan-2-yl)-benzonitrile]",–
68,"CC1(C)COB(c2ccccc2F)OC1 [Example 40, 2-(2-Fluoro-phenyl)-5,5-dimethyl-[1,3,2]dioxaborinane]",–
93,"CCOC(=O)c1ccccc1B1OCC(C)(C)CO1 [Example 42, 2-(5,5-Dimethyl-[1,3,2]dioxaborinan-2-yl)-benzoic acid ethyl ester]",–
36,"COc1ccc(Cl)cc1B(O)O [Example 43, 5-CHLORO-2-METHOXYPHENYLBORONIC ACID]",–
71,"OB(O)c1cc(Br)cc(Br)c1 [Example 44, 3,5-Dibromophenylboronic acid]",–
90,"CCOc1cccc(B(O)O)c1 [Example 45, 3-Ethoxyphenylboronic acid]",–
96,"OB(O)c1cccc(-c2ccccc2)c1 [Example 46, 3-phenylphenylboronic acid]",–
65,"OB(O)c1ccc(F)cc1 [Example 47, 4-fluorophenylboronic acid]",–
81,"OB(O)c1ccccc1Br [Example 48, 2-Bromophenylboronic acid]",–
33,"OB(O)c1cccc(Br)c1 [Example 49, 3-Bromophenylboronic acid]",–
88,"OB(O)c1c(Cl)cccc1Cl [Example 50, 2,6-Dichlorophenylboronic acid]",–
64,"Cc1cccc(B(O)O)c1 [Example 51, 3-Methylphenylboronic acid]",–
86,"OB(O)c1ccccc1Cl [Example 52, 2-Chlorophenylboronic acid]",–
34,"OB(O)c1cccc(Cl)c1 [Example 53, 3-Chlorophenylboronic acid]",–
27,"OB(O)c1cccc(OC(F)(F)F)c1 [Example 54, 3-(TRIFLUOROMETHOXY)BENZENEBORONIC ACID]",–
21,"OB(O)c1cccc(C(F)(F)F)c1 [Example 55, 3-Trifluoromethylphenylboronic acid]",–
89,"OB(O)c1cc(C(F)(F)F)cc(C(F)(F)F)c1 [Example 56, 3,5-Bis(Trifluoromethyl)phenylboronic acid]",–
46,"OB(O)c1cc(Cl)cc(Cl)c1 [Example 57, 3,5-Dichlorophenylboronic acid]",–
35,"OB(O)c1ccc(F)c(Cl)c1 [Example 58, 3-Chloro-4-fluorophenylboronic acid]",–
25,"OB(O)c1cc(F)cc(F)c1 [Example 59, 3,5-Difluorophenylboronic acid]",–
47,"OB(O)c1cccc(F)c1 [Example 60, 3-Fluorophenylboronic acid]",–

activity at 10 µM [1] [%],Molecule,other results
85,"CCCCCc1ccc(B(O)O)c(F)c1F [Example 61, 2,3-DIFLUORO-4-PENTYLPHENYLBORONIC ACID]",–
–,"OB(O)c1ccc(OCc2ccccc2)c(F)c1 [Example 62, 3-FLUORO-4-BENZYLOXYPHENYL)BORONIC ACID]",TEST 3180.2 HSL Activity (%) [1]: 93%
26,"OB(O)c1cc(F)c(F)c(F)c1 [Example 63, 3,4,5-Trifluorophenylboronic acid]",–
76,"OB(O)c1cc(Cl)cc(Cl)c1Cl [Example 64, 2,3,5-Trichlorophenylboronic acid]",–
55,"OB(O)c1cc(Cl)ccc1Cl [Example 65, 2,5-Dichlorophenylboronic acid]",–
55,"OB(O)c1cccc(F)c1F [Example 66, 2,3-Difluorophenylboronic acid]",–
34,"OB(O)c1cc(F)ccc1F [Example 67, 2,5-Difluorophenylboronic acid]",–
86,"CC(=O)Nc1ccc(B2OC(C)(C)C(C)(C)O2)cc1 [Example 68, 4′-(4,4,5,5-TETRAMETHYL-1,3,2-DIOXABOROLAN-2-YL)ACETANILIDE]",–
45,"OB(O)c1ccc(F)c(F)c1 [Example 69, 3,4-Difluorophenylboronic acid]",–
66,"OB(O)c1cccc(Cl)c1Cl [Example 70, 2,3-Dichlorophenylboronic acid]",–
61,"OB(O)c1ccc(Br)c(F)c1F [Example 71, 2,3-Difluoro-4-bromophenylboronic acid]",–
62,"COc1ccc(F)cc1B(O)O [Example 73, 2-Methoxy5-fluorophenylboronic acid]",–
–,"COC1OC2COB(c3ccccc3)OC2C(O)C1O (stereo not shown) [Example 78, 6-Methoxy-2-phenyl-hexahydro-pyrano[3,2-a][1,3,2]dioxaborinine-7,8-diol]",TEST 3180.2 HSL Activity (%) [1]: 82%
100,"CCCCCC1COB(c2ccc(C(=O)O)c(F)c2)OC1 [Example 79, 2-Fluoro-4-(5-pentyl-[1,3,2]dioxaborinan-2-yl)-benzoic acid]",–
80,"Ic1cccc(OCC2COB(c3ccccc3)O2)c1 (stereo not shown) [Example 80, 4-(3-Iodo-phenoxymethyl)-2-phenyl-[1,3,2]dioxaborolane]",–
–,"CC1(C)OB(c2ccsc2[Si](C)(C)C)OC1(C)C [Example 81, 3′-(4,4,5,5-TETRAMETHYL-1,3,2-DIOXABOROLAN-2-YL)-2-trimethylsilylthiophen]",TEST 3180.2 HSL Activity (%) [1]: 85%
–,"CC1(C)OB(c2csc([N+](=O)[O-])c2)OC1(C)C [Example 82, 4′-(4,4,5,5-TETRAMETHYL-1,3,2-DIOXABOROLAN-2-YL)2-nitrothiophene]",TEST 3180.2 HSL Activity (%) [1]: 96%
76,"OB(O)c1csc2ccccc12 [Example 83, 1-BENZOTHIOPHEN-3-YLBORONIC ACID]",–
92,"O=Cc1sccc1B(O)O [Example 84, 2-FORMYL-3-THIOPHENEBORONIC ACID]",–
89,"c1ccc2c(c1)OB(c1ccsc1)O2 [Example 85, 2-THIEN-3-YL-1,3,2-BENZODIOXABOROLE]",–
–,"Cc1cc(B2OCCCO2)sc1C=O [Example 87, 2-(2-FORMYL-3-METHYLTHIEN-5-YL)-1,3,2-DIOXABORINANE]",activity at 10 µM: 75%
49,"Cc1csc(B(O)O)c1 [Example 88, 4-METHYLTHIOPHENE-2-BORONIC ACID]",–
87,"Cc1ccc(B(O)O)o1 [Example 89, 5-METHYLFURAN-2-BORONIC ACID]",–
48,"Cc1ccc(B(O)O)s1 [Example 90, 5-Methylthiophene-2-boronic acid]",–
57,"OB(O)c1cc2ccccc2o1 [Example 91, BENZO[B]FURAN-2-BORONIC ACID]",–
53,"OB(O)c1cc2ccccc2s1 [Example 92, Benzo[B]thiophene-2-boronic acid]",–

# Reference: patent US7037905B2, “Pharmaceutical use of boronic acids and esters thereof” (Novo Nordisk A/S, priority 2002, dated 2006)
